These results are taken from patent US8394776B2, “Use of ursolic acid saponin,oleanolic acid saponin in preparation of increasing leucocytes and/or platelet medicine” (Chengdu Di'Ao Jiuhong Pharmaceutical Factor, priority 2007, dated 2013).

For series [1], the system named is leukocytes (WBC). In words: Cyclophosphamide-induced leukopenia in mice: leukocytes (WBC). Particulars: 0.8 mg/kg; for leukocytes (WBC), Day1 after modeling: CY 100 mg/kg x 3 days. Type of series: in vivo, Kunming mice. The method, then:
(§1) Further, in vivo experiments were carried out on the compounds involved in the present invention using animal models of cyclophosphamide-induced leukopenia in mice. Experimental methods are briefed as follows: Healthy Kunming mice, of which half were male and the other half were female, were divided into groups, each group incuding 18 mice, and those mice weighing 18-22 g were selected and divided into groups randomly according to their body weights. Each group was given a different drug, wherein the negative control group and model control group were given physiological saline of the same volume, and the positive control group was treated with granulocyte colony-stimulating factors 40 μg/kg through subcutaneous injection (injection volume: 0.1 ml/10 g). After administration for 3 days, except the negative control group, other treatment groups were treated with 100 mg/kg cyclophosphamide (CY) through lumbar injection once a day for three days to cause a decrease of leukocytes in mice. A drop of blood (20 μl) was taken from posterior orbital venous plexus to detect the hemogram to observe the situation of leukocytes and platelets on day 1, day 3 and/or day 5 after the final lumbar injection of cyclophosphamide (i.e day 1, day 3 and/or day 5 after modeling) (Note: Each treatment group was administrated incessantly). The mice were killed on day 5 after the final lumbar injection of cyclophosphamide (i.e day 5 after modeling), and the leukocytes (WBC) and platelets (PLT) of the hemogram index were counted.
This experiment mainly studies the effect of G-1, G-6 and G-8 of ursolic acid saponin in increasing leukocytes, and compares the therapeutic effects of aglycon of ursolic acid and oleanolic acid and of the compound G-22 which has been disclosed by a patent.
(§2) The purpose of this experiment is to study the effect of G-1, G-3, G-11 and G-12 of ursolic acid saponin and oleanolic acid saponin in increasing platelets, and to observe whether G-11 and G-12 of oleanolic acid saponin have an effect in increasing leukocytes.

In series [2] the test system is platelets (PLT). In words: Cyclophosphamide-induced leukopenia in mice: platelets (PLT). Particulars: Experimental Example 3, 0.8 mg/kg. The series is classed as in vivo, Kunming mice. As to the method: as §1, §2
In series [3] the test system is bone marrow mononuclear cell (BMMNC). The series is described as follows: Monocytic proliferation in bone marrow of mice cultured in vitro (SRB method). Type of series: cell-based, KunMing mice. Conditions: 1 μg/ml; cultured 5 days; versus blank control. The source says:
15-20 KunMing mice (purchased from Laboratory Animal Center of Zhengzhou University, Henan) of either sex were killed by cervical vertebral dislocation. Bilateral thighbones were isolated and caput femoris was cut off. The marrow was washed repeatedly with serum-free RPMI1640 (Gibco Corp.), the wash solution containing marrow cells was collected, sucked and blew repeatedly with a pipette to make the cells disperse. After standing for a moment, the supernatant was sucked up and centrifugated at 100 g for 3 min to collect the cell pellet. The cells were resuspended in a culture media and brought to a volume of 5 ml. The cell suspension was added to the upper layer of a centrifugal tube containing 5 ml of a lymphocyte separation medium of mice and centrifugated at 400 g for 30 min. The milk-white bone marrow mononuclear cell (BMMNC) layer in the middle of the interface was collected and washed with serum-free medium RPMI1640 for three times to obtain a BMMNC suspension, which was inoculated into a 96-well plate at forty thousand per well after counting. Positive drugs rhG-CSF (recombinant granulocyte colony-stimulating factor, manufactured by QI LU Pharmaceutical Co., LTD., Shandong) or test samples of different concentrations were added, and meanwhile a blank control group without drug was established. They were cultured in a 5% CO2 incubator at 37 for 5 days. Cell proliferation was measured by a conventional SRB (Sigma) method in which OD at 490 nm was measured after being dyed with SRB. The growth rates of cell proliferation after drug treatment were calculated (Growth rate of cell proliferation=experimental group-blank control group/blank control group*100%).
A general note: Sulforhodamine B stains cellular protein and so reports cell mass.

Series [4] concerns WBC. The series is described as follows: 60Co-γ-induced leukopenia in mice: WBC. Type of series: in vivo, Kunming mice. The source says: In order to illustrate the present invention in detail, with a model induced by ^60Co-γ rays, the effects of G-1 and G-22 on leukocytes of chemotherapy-induced-leukopenia mice were compared. The specific operation and the results are as follows.
Healthy Kunming mice, of which half were male and the other half were female, were divided into 6 groups randomly, with 17-18 in each group. Blood was taken from caudal vein to determine the normal hemogram (leucocyte, erythrocyte, platelet and hemoglobin), and adjustments were made according to body weights and hemogram results. The normal control group and model group were given isometric physiological saline once a day for 7 days, and then the post-radiation hemogram was determined. Except the normal control group, other groups were each subjected to a whole body exposure to ^60Co-γ rays at a total dose of 3.0 Gy to prepare the models of leukopenia in mice, followed by further administration for 14 days. The G-CSF group was adminitrated through subcutaneous injection for 5 days from the irradiation day on and the hemogram was determined by taking blood respectively on day 3, day 7 and day 14 after irradiation.

The test system of series [5] is erythrocytes. In words: Comparison of hemolytic activities (HD50). The series is classed as cell-based, rabbit. As to the method:
The test samples were dissolved in DMSO/physiological saline (1:4) as a solvent to generate the tested concentration gradients of 40, 80, 120, 160, 200 μg/ml. Blood (25 ml) was taken from a rabbit heart, poured into an erlenmeyer flask containing glass beads and shook gently for 10 min to remove fibrinogen so as to convert the blood into defidrinated blood. The resultant blood was transferred into a graduation centrifugal tube. About 10 times physiological saline was added, shook up and centrifuged at 2000 r/min for 5 minutes. The supernatant was removed, and the precipitated erythrocytes were washed with physiological saline again by the above method for 4 times until the supernatant was colorless and transparent. The resulant erythrocytes were prepared into a 10% suspension using physiological saline for testing. 250 μl of the 10% erythrocyte suspension was added into 2.5 ml of a tested sample, solvent (blank control) or distilled water (positive control), mixed thoroughly, and immediately placed in a thermotank maintained at 37° C. for incubation; and it was taken out 1 hour later and centrifuged at 3000 r/min for 5 minutes. The supernatant was taken for determining the OD value at 540 nm with a spectrophotometer. Hemolysis (Hemolysis Percentage)=(absorbance of sample−absorbance of blank control)×100%÷(absorbance of positive control-absorbance of blank control); and the data processing was performed by SPSS13.0 statistical software with drug concentration as an independent variable X and hemolysis as a dependent variable Y to obtain a linear regression equation; then, the drug concentration causing 50% hemolysis, i.e HD50, was calculated according to the equation. A P-value <0.05 was considered statistically significant.

Series [6] concerns leucocytes. Conditions: administrated through abdominal cavity; 25, 50 and 100 mg/kg; effect obvious at high dose; cited from earlier work.
[7] abbreviates: 0.80 mg/kg i.g., 3.0 Gy whole body.

Molecules are shown by their SMILES. Marks after values point to notes of the source that are not given here.

Consider `C[C@H]1[C@H](C)CC[C@]2(C(=O)O[C@@H]3OC[C@H](O)[C@H](O)[C@H]3O)CC[C@]3(C)C(=CC[C@@H]4[C@@]5(C)CC[C@H](O[C@@H]6OC[C@H](O)[C@H](O)[C@H]6O)C(C)(C)[C@@H]5CC[C@]43C)[C@H]12` [Sample G-1, 3-O-(α-L-arabopyranosyl) ursolic acid-28-O-(α-L-arabopyranosyl) ester], for which, in series [1] (Experimental Example 2), the “leukocytes (WBC), Day 3 after modeling” value is recorded as 7.85 ± 3.00**★★; the “leukocytes (WBC), Day 5 after modeling” value is given as 15.46 ± 10.44; the “leukocytes (WBC), Day1 after modeling” value is recorded as 1.14 ± 0.56Δ. Also, the “difference in increasing leukocytes compared with G-22 (in words)” value in series [1] (Experimental Example 2, especially on day 3 after modeling) was “obvious difference in increasing leukocytes”. In series [1] (Experimental Example 3), the “effect in increasing leukocytes (in words)” value is “obvious effect in increasing leukocytes and platelets”; the “leukocytes, Day 1 after modeling” value worked out at 0.98 ± 0.55; the “leukocytes, Day 5 after modeling” value came to 9.33 ± 5.17. In addition, the “difference in increasing leukocytes compared with G-22 (in words)” value in series [1] (Experimental Example 3, day 5 after modeling) is “significant difference in increasing leukocytes and platelets”. Besides, in series [2], the “effect in increasing platelets (in words)” value was “obvious effect in increasing leukocytes and platelets”; the “platelets, Day 1 after modelng” value was found to be 504.67 ± 117.81; the “platelets, Day 5 after modeling” value is 413.00 ± 218.95*★★. Also, the “difference in increasing platelets compared with G-22 (in words)” value in series [2] (day 5 after modeling) is “significant difference in increasing leukocytes and platelets”. The “Growth Rate of Proliferation %, 1 μg/ml” value in series [3] amounted to 31.3%. In addition, the “effect on leucocyte count of leukopenia mice (in words)” value in series [4] (0.80 mg/kg gastric perfusion, versus model group, day 7 and day 14 after irradiation) is “increased obviously”. The “WBC, 1 week after administration” value in series [4] (0.80 mg/kg i.g. once a day for 7 days, before irradiation) is on record as 9.21 ± 2.16 109/L. In addition, in series [4] (setting [7]), the “WBC, Day 3 after irradiation” value was 2.06 ± 0.75 109/L; the “WBC, Day 7 after irradiation” value is listed as 4.59 ± 1.52** 109/L; the “WBC, Day 14 after irradiation” value is 6.37 ± 1.54** 109/L. In addition, the “WBC, Normal” value in series [4] (normal hemogram before administration (baseline), 0.80 mg/kg i.g. group) is 8.96 ± 1.58 109/L. Also, the “HD50 (drug concentration causing 50% hemolysis)” value in series [5] (10% rabbit erythrocyte suspension, 37° C., 1 hour, from linear regression over 40-200 μg/ml) turned out to be 345 µg/mL. Moreover, the “tendency to cause hemolysis (in words)” value in series [5] (comparison among G-1, G-3, G-6, G-8) is recorded as “the most difficult to cause hemolysis”.
Take `CC1(C)CC[C@]2(C(=O)O)CC[C@]3(C)C(=CC[C@@H]4[C@@]5(C)CC[C@H](O)C(C)(C)[C@@H]5CC[C@]43C)[C@@H]2C1` [Sample G-20, oleanolic acid]: in series [1] (Experimental Example 2), the “effect in increasing leukocytes (in words)” value is “no obvious effect in increasing leukocytes”; the “leukocytes (WBC), Day 3 after modeling” value stood at 3.88 ± 2.01; the “leukocytes (WBC), Day 5 after modeling” value amounted to 7.00 ± 3.22; the “leukocytes (WBC), Day1 after modeling” value is 0.99 ± 0.40. The “Growth Rate of Proliferation %, 1 μg/ml” value in series [3] is on record as 4.5%. Moreover, the “effect in increasing leucocytes (in words)” value in series [6] was “effective in increasing leucocytes”.
On to `C[C@H]1[C@H](C)CC[C@]2(C(=O)O)CC[C@]3(C)C(=CC[C@@H]4[C@@]5(C)CC[C@H](O)C(C)(C)[C@@H]5CC[C@]43C)[C@H]12` [Sample G-21, ursolic acid], for which, in series [1] (Experimental Example 2), the “effect in increasing leukocytes (in words)” value is “no obvious effect in increasing leukocytes”; the “leukocytes (WBC), Day 3 after modeling” value amounted to 3.94 ± 1.73; the “leukocytes (WBC), Day 5 after modeling” value is reported as 7.07 ± 3.14; the “leukocytes (WBC), Day1 after modeling” value was 1.01 ± 0.47. Also, the “Growth Rate of Proliferation %, 1 μg/ml” value in series [3] was found to be 7.9%. Moreover, the “effect in increasing leucocytes (in words)” value in series [6] was “effective in increasing leucocytes”.
